From patent US8859615B2, “Compounds, compositions and methods for reducing toxicity and treating or preventing diseases” (priority 2008, dated 2014)
Values joined by “and” are separate entries in the source; they are usually repeats but may differ in a detail not shown here. Equal entries are not always repeated. Where two headings read alike, the source gives them in different places.

Key:
[1] = test system: quinone reductase (NQO1) in Hepa 1c1c7 murine hepatoma cells; conditions: for comparison; cited from earlier work
[2] = test system: human mammary carcinoma MX-1 cells; experiment: In vitro drug combination (median-effect / combination index, DRI) against MX-1 cell growth (Tables 5, 5A); assay type: cell-based; conditions: for IC50: MX-1, 72 hrs
Method: (§1) The data in Tables 2X, 3A-E, 4, 5, and 6 were obtained using the cell counting kit-8 (CCK-8) tetrazolium assay in a 96-well microplate. Five to seven concentrations of each compound in triplicate were used, and the IC50 values were determined by CompuSyn software automation (Chou T C. and Martin N. ComboSyn, Inc., 2006) based on the median-effect equation and plot (Chou T C. J. Theor. Biol. 59:235-276, 1976; Chou T C. Pharmacol. Rev. 58: 621-681, 2006). […] The r value defines the correlation coefficient of the median-effect plot which signifies the conformity to the mass-action law principle (Chou T C. J. Theor. Biol. 59:235-276, 1976; Chou T C. Pharmacol. Rev. 58:621-681, 2006). These parameters were determined by CompuSyn simulation (available at http://www.combosyn.com).
Efficacy of panaxytriol in combination with Fludelone (an illustrative tubulin-binding anticancer agent) was measured according to procedures described in more detail by Chou et al. (1984) Adv. Enz. Regul., 22:27-55, Chou et al. (1994) Nat'l Cancer Inst., 86:1517-1524, and Chou (2006) Pharmacological Reviews, […]:621-681. Software packages used for data analyses were CalcuSyn for Windows (Chou and Hayball., Multiple-drug dose effect analyzer and manual, Biosoft, Cambridge Place, Cambridge, U.K (1996)) and CompuSyn for Drug Combinations (Chou and Martin, Software for determination of synergism and antagonism and determination of IC50, ED50 and LD50, ComboSyn Inc., Paramus, N.J. (2005)). The entire contents of each of the above references are incorporated by reference in their entireties. […] DRI quantitates synergy as how many fold less of a dose is required to obtain a given level of effect for a combination of drugs versus the same effect for an individual component of the combination.

[3] = test system: human colon carcinoma HCT-116 xenografts; experiment: Compound D with Iso-Oxazole-Fludelone or Isodehydelone in nude mice bearing HCT-116 xenografts; conditions: FIG. 15; Isodehydelone 6 hr-iv infusion, with or without oral Compound (D); n=7
[4] = test system: CCRF-CEM human T-cell acute lymphoblastic leukemia cells; experiment: In vitro cytotoxicity against CCRF-CEM (XTT / CCK-8 tetrazolium assay, 72 hr); conditions: Homo sapiens, CCRF-CEM, 72 h
Method: (§2) The cytotoxicity IC50 of each compound was measured with the XTT assay using the 2,3-bis(2-methoxy-4-nitro-5-sulfophenyl)-5-[(phenylamino)carbonyl]-2H-tetrazolium hydroxide (XTT) microculture method as described in Scudiero et al., Cancer Res., 48:4827 (1988), the contents of which are hereby incorporated by reference in their entirety. The CCK-8 assay is a cell counting kit-8 (CCK-8) tetrazolium assay using a 96-well microplate (Dojindo Molecular Technologies, Inc., Rockville, Md.) (M. Ishiyama et al., Biol. Pharm. Bull. 19: 1518, 1996). Absorbance was measured by Powerwave a XS microplate spectrophotometer. This method described is considered a general method in vitro cytotoxicity studies.
as §1
(§3) CCRF-CEM human T-cell acute lymphoblastic leukemia cells and the corresponding vinblastine-resistant cells (CCRF-CEM/VBL100) were cultured at an initial density of 5×10^4 cells per milliliter. The cultured cells were maintained in a 5% CO2-humidified atmosphere at 37° C. in RPMI medium 1640 (GIBCO/BRL) containing penicillin (100 units/mL), streptomycin (100 μg/mL, GIBCO/BRL), and 10% heat-inactivated fetal bovine serum. The cytotoxicity of each Compound of the invention was measured using the 2,3-bis(2-methoxy-4-nitro-5-sulfophenyl)-5-[(phenylamino)carbonyl]-2H-tetrazolium hydroxide (XTT) microculture method as described in Scudiero et al., Cancer Res., 48:4827 (1988), the contents of which are hereby incorporated by reference in their entirety.
(§4) Absorbance was measured by Powerwave XS microplate spectrophotometer.

[5] = Method: The experimental procedure for FIG. 14 was carried out similarly to that in FIG. 1. * means P<0.1 and ** means P<0.05. Body weight was calculated as described for FIGS. 1 and 4-7.
The experiments were performed as indicated for FIG. 14, with Compound (K) being administered orally. Compound K was administered on the days indicated by the arrows at the top of the graph, and paclitaxel was administered on the days indicated by the arrows on the bottom of the graph. Body weight was calculated as described for FIGS. 1, 4-7, 14 and 15. * means P<0.1 and ** means P<0.05.

[6] = test system: CCRF-CEM subline resistant to TAXOL; experiment: In vitro cytotoxicity against TAXOL-resistant CCRF-CEM subline; assay type: cell-based, human; conditions: Table 3A-2
Method: as §1, §4

[7] = test system: CCRF-CEM/VBL100 vinblastine-resistant cells; experiment: In vitro cytotoxicity against vinblastine-resistant CCRF-CEM subline; assay type: cell-based, human; conditions: for IC50: Homo sapiens, CCRF-CEM, 72 h
Method: as §2, §1, §3, §4

[8] = for Total score: Table 11A, First Round, days 09-27; for 1st & 2nd Cycle Total Score / 2nd Cycle Total Score: Table 11C; for toxicity score (neurotoxicity): nude, mouse, in vivo
Method: The “toxicity score” (or “Total Score” in Tables 11A-C) is determined by adding the neurotoxicity ratings. The ratings used are: Normal (−, a toxicity score of 0); slightly unable to balance (+, a toxicity score of 1); hind-leg paralysis (++, a toxicity score of 2); and 4-leg paralysis and death (+++, none observed).

[9] = test system: quinone reductase (NQO1) in Hepa 1c1c7 murine hepatoma cells; experiment: Phase 2 enzyme inducer activity (Prochaska microtiter plate bioassay); conditions: Hepa 1c1c7 cells
Method: Pure panaxytriol was dissolved in dimethyl sulfoxide. Phase 2 enzyme inducer activity was measured using a rapid assay of activity of representative phase 2 enzyme in a cell line. This assay was originally developed by Prochaska and colleagues as in Prochaska H J, Santamaria A B, Talalay P. “Rapid detection of inducers of enzymes that protect against carcinogens.” Proc Natl Acad Sci US A 1992; 89:2394-2398, and has been further refined as in Fahey J W, Dinkova-Kostova A T, Stephenson K K, Talalay P. “The “Prochaska” microtiter plate bioassay for inducers of NQO1.” Methods Enzymol. 2004; 382:243-258, each of which are incorporated by reference in its entirety. Briefly, Hepa 1c1c7 murine hepatoma cells were grown in 96-well microtiter plates. Serial dilutions of the extracts or compounds which were assayed were added into the wells. After 48 hours, the cells were lysed and the activity of quinone reductase (NQO1) was assayed by the addition of a reaction mixture containing an NADPH-generating system, menadione and MTT. NQO1 catalyzes the reduction of menadione to menadiol by NADPH, and MTT is reduced nonenzymatically by menadiol, resulting in the formation of a blue color that can then be quantitated as in Prochaska H J, Santamaria A B. “Direct measurement of NAD(P)H:quinone reductase from cells cultured in microtiter wells: a screening assay for anticarcinogenic enzyme inducers.” Anal. Biochem. 1988; 169:328-336, which is incorporated by reference in its entirety. […] NQO1 activity and protein content of the lysate were measured in duplicate plates with an optical microtiter plate absorbance reader. […] One unit of inducer activity is defined as the amount that, when added to a single microtiter well, doubles the NQO1 specific activity. Sulforaphane and β-naphthoflavone were used as positive controls in each bioassay. […] NQO1 inducer activity was assayed as described herein, and is reported here as treated/control at different concentrations of ginseng extract or component per well. […] (+) Panaxytriol (molecular weight […]), (Δ) Protopanaxatriol (molecular weight 461), (◯) Korean red SUN GINSENG® extract. The reductase assay can also be performed as disclosed in PCT Publication No. WO 06/023821, the entire contents of which are hereby incorporated in the instant application.

leukemic CCRF CEM cells = experiment: Precursor incorporation into DNA, RNA and protein (Table 9); assay type: cell-based, human
Method: The radioactive tracer studies were carried out as described by Chou T C, et al. Cancer Res. 43: 3074-3079, 1983.

[10] = test system: human lymphoblastic leukemic T-cell growth; experiment: Cytotoxic activity relative to stability during storage at −20° C. in DMSO (Table 10); assay type: cell-based; conditions: Homo sapiens, CCRF-CEM, 72 h, XTT, 72 hr
Description: Without wishing to be bound by theory, the oxidized versions may be active metabolites. This theory provides an explanation of the delayed onset of therapeutic effects seen in the figures herein. The oxidized compounds may be active agents that are formed slowly upon metabolic oxidation. […] The active metabolites may explain the biphasic pharmacological properties of panaxytriol or Compound D that have been observed (FIGS. 9B, C, D; FIGS. 11D, E, F, and FIGS. 12D, E). […] Induction of the phase 2 enzymes may slow oxidation of the compounds (Ng et al., Tetrahedron Letters. 49: 7178-7179 (2008)).

[11] = Table 5, fold dose reduction allowed in the Panaxytriol + Fludelone combination

## C[S+]([O-])CCCCN=C=S (centres unmarked) [sulforaphane]
[1]
  reported CD value: 0.2 µM
  reported inducer potency: 188,000,000 U/g

## C/C(=C\c1csc(C)n1)[C@@H]1C/C=C(/C(F)(F)F)C/C=C/[C@H](C)[C@H](O)[C@@H](C)C(=O)C(C)(C)[C@@H](O)CC(=O)O1 [Fludelone]
[2]; Table 5, Panaxytriol + Fludelone combination (1.199 + 0.0012), read-out: Dose-effect parameter Dm (IC50) of the component in the combination
  IC50: 0.0012 µM
[2]; Table 5, each drug alone, read-out: Dose-effect parameter Dm (IC50)
  IC50: 0.0027 µM
[2]; [11]
  Dose-Reduction Index (DRI) at IC50: 2.27
  Dose-Reduction Index (DRI) at IC75: 7.02
  Dose-Reduction Index (DRI) at IC90: 21.69
  Dose-Reduction Index (DRI) at IC95: 46.73
[2]; panaxytriol + Fludelone combination, MX-1 cells
  dose-reduction index (DRI): 2.27-46.73

## iso-oxazole-dehydelone (17-isooxazole-dehydelone) [isodehydelone]
[3]
  mice died: Two

## CC(=O)O[C@H]1C(=O)[C@@]2(C)[C@H]([C@H](OC(=O)c3ccccc3)[C@]3(O)C[C@H](OC(=O)[C@H](O)[C@@H](NC(=O)c4ccccc4)c4ccccc4)C(C)=C1C3(C)C)[C@]1(OC(C)=O)CO[C@@H]1C[C@@H]2O [paclitaxel]
[4]; read-out: CCRF-CEM (IC50 in μM), Table 3A-2, CCK-8, 72-hr exposure
  IC50: 0.0013 µM
[5]; FIG. 14, paclitaxel 25 mg/kg iv Q2D×8, with or without Compound K 30 mg/kg iv Q4D×14
  complete remission (CR): 10/10
[5]; mouse, in vivo
  BW loss: approximately 25%
  decrease in BW: 13.2%
[6]; Homo sapiens, CCRF-CEM, CCK-8, 72-hr exposure, read-out: CCRF-CEM/TAXOL (IC50 in μM)
  IC50: 1.12 µM
[6]
  Fold of resistance (IC50 ratio CCRF-CEM/TAXOL vs CCRF-CEM): 860 fold
[7]; Table 3A-2, CCK-8, 72-hr exposure, read-out: CCRF-CEM/VBL (IC50 in μM)
  IC50: 2.26 µM
[7]; Table 3A-2
  Fold of resistance (IC50 ratio CCRF-CEM/VBL vs CCRF-CEM): 1741 fold
[8]; per mouse
  Total score: 8 (3×) and 2 (2×) and 0 and 5 and 3 and 10 and 7
[8]; whole group of 10 mice
  Total score: 53
  1st & 2nd Cycle Total Score: 234
  2nd Cycle Total Score: 181
[8]; per mouse, listed as Taxol
  1st & 2nd Cycle Total Score: 33 (2×) and 4 (2×) and 15 and 35 and 18 and 34 and 27 and 31
  2nd Cycle Total Score: 25 (2×) and 2 (2×) and 15 (2×) and 30 and 24 and 20 and 23
[8]; days 12-26, sum over 11 mice of the group, first round of paclitaxel
  1st Total score (group): 13
[8]; days 12-26, sum per individual mouse, first round of paclitaxel
  1st Total score (per mouse): 3 and 2 (3×) and 4
[8]; days 28-42, sum over 11 mice of the group, second round of paclitaxel
  2nd Total Score up to day 42 (group): 79
[8]; days 28-42, sum per individual mouse, second round of paclitaxel
  2nd Total Score up to day 42 (per mouse): 8 and 6 (3×) and 9 (3×) and 7 and 5 and 4 and 10
[8]; 27 day
  toxicity score (neurotoxicity): 2
[8]; 59 day
  toxicity score (neurotoxicity): 6

## CC(C)=CCCC(C)(O)[C@H]1CC[C@]2(C)[C@@H]1[C@H](O)C[C@@H]1[C@@]3(C)CC[C@H](O)C(C)(C)[C@@H]3CC[C@]12C (stereo in doubt) [protopanaxadiol]
[9]
  significant cytotoxicity observed above: above 5 μg/well

## C=CC(=O)C#CC#CC[C@@H](O)[C@H](O)CCCCCCC [Compound (B)]
Leukemic CCRF CEM cells; 15 μM, 15 min, ↑ (activation)
  [3H]-AdR → RNA (% Activation ↑ or Inhibition ↓): 30.7 ↑ %
  [3H]-dThd → DNA (% Activation ↑ or Inhibition ↓): 26.1 ↑ %
Leukemic CCRF CEM cells; 100 μM, 60 min, ↓ (inhibition)
  [3H]-AdR → RNA (% Activation ↑ or Inhibition ↓): 82.0 ↓ %
  [3H]-dThd → DNA (% Activation ↑ or Inhibition ↓): 78.2 ↓ %
Leukemic CCRF CEM cells; Homo sapiens, CCRF-CEM, 15 μM, 15 min, ↓ (inhibition), read-out: [3H] Leu → Protein (% Activation ↑ or Inhibition ↓)
  inhibition at 15 µM: 62.8%
Leukemic CCRF CEM cells; Homo sapiens, CCRF-CEM, 100 μM, 60 min, ↓ (inhibition), read-out: [3H] Leu → Protein (% Activation ↑ or Inhibition ↓)
  inhibition at 100 µM: 78.2%
[4]; read-out: IC50 CCRF-CEM, Table 3, XTT, 72-hour
  IC50: 4.49 ± 0.41 µM
[7]; read-out: IC50 CCRF ± CEM/VBL
  IC50: 6.29 ± 1.41 µM
[7]; Table 3
  fold resistance in brackets (IC50 CCRF-CEM/VBL vs CCRF-CEM): 1.40 x
[10]; read-out: IC50 in μM CCRF-CEM, Table 10, Aug. 22, 2003 (Stored), same solution kept at −20° C. in DMSO
  IC50: 4.78 µM
[10]; read-out: IC50 in μM CCRF-CEM, Table 10, Jul. 25, 2003 (Fresh)
  IC50: 0.72 ± 0.14 µM
[10]; read-out: IC50 in μM CCRF-CEM/VBL, Table 10, Aug. 22, 2003 (Stored), same solution kept at −20° C. in DMSO
  IC50: 5.29 µM
[10]; read-out: IC50 in μM CCRF-CEM/VBL, Table 10, Jul. 25, 2003 (Fresh)
  IC50: 0.95 µM
